# Laboratory results: patent publication US11208412B2 (DAEGU-GYEONGBUK MEDICAL INNOVATION FOUNDATION, priority 2017, dated 2021)
# Molecular target: T1, recombinant LRRK2 kinase (Homo sapiens, UniProt Q5S007)
# T1 construct: purchased Signal Chem, Richmond, BC, Canada
# Assay: LRRK2 kinase inhibition (Kinase-Glo luminescence)
# Assay type: biochemical
# Details: IC50 grade; 25 μmol/L ATP, LRRKtide, 30° C. 2 hours; read-out: Enzyme activity LRRK2
# Description: Upon completion of the reaction, an equal amount of Kinase-Glo (Promega, Madison, Wis.) solution was added thereto, followed by reaction for 40 minutes. A detection solution was added thereto, followed by further reaction at room temperature for 30 minutes. Then, IC50 of kinase was calculated by measuring the amount of luciferase using a microplate ELISA reader (Bio-Tek).
# T1 sequence (Q5S007 whole entry): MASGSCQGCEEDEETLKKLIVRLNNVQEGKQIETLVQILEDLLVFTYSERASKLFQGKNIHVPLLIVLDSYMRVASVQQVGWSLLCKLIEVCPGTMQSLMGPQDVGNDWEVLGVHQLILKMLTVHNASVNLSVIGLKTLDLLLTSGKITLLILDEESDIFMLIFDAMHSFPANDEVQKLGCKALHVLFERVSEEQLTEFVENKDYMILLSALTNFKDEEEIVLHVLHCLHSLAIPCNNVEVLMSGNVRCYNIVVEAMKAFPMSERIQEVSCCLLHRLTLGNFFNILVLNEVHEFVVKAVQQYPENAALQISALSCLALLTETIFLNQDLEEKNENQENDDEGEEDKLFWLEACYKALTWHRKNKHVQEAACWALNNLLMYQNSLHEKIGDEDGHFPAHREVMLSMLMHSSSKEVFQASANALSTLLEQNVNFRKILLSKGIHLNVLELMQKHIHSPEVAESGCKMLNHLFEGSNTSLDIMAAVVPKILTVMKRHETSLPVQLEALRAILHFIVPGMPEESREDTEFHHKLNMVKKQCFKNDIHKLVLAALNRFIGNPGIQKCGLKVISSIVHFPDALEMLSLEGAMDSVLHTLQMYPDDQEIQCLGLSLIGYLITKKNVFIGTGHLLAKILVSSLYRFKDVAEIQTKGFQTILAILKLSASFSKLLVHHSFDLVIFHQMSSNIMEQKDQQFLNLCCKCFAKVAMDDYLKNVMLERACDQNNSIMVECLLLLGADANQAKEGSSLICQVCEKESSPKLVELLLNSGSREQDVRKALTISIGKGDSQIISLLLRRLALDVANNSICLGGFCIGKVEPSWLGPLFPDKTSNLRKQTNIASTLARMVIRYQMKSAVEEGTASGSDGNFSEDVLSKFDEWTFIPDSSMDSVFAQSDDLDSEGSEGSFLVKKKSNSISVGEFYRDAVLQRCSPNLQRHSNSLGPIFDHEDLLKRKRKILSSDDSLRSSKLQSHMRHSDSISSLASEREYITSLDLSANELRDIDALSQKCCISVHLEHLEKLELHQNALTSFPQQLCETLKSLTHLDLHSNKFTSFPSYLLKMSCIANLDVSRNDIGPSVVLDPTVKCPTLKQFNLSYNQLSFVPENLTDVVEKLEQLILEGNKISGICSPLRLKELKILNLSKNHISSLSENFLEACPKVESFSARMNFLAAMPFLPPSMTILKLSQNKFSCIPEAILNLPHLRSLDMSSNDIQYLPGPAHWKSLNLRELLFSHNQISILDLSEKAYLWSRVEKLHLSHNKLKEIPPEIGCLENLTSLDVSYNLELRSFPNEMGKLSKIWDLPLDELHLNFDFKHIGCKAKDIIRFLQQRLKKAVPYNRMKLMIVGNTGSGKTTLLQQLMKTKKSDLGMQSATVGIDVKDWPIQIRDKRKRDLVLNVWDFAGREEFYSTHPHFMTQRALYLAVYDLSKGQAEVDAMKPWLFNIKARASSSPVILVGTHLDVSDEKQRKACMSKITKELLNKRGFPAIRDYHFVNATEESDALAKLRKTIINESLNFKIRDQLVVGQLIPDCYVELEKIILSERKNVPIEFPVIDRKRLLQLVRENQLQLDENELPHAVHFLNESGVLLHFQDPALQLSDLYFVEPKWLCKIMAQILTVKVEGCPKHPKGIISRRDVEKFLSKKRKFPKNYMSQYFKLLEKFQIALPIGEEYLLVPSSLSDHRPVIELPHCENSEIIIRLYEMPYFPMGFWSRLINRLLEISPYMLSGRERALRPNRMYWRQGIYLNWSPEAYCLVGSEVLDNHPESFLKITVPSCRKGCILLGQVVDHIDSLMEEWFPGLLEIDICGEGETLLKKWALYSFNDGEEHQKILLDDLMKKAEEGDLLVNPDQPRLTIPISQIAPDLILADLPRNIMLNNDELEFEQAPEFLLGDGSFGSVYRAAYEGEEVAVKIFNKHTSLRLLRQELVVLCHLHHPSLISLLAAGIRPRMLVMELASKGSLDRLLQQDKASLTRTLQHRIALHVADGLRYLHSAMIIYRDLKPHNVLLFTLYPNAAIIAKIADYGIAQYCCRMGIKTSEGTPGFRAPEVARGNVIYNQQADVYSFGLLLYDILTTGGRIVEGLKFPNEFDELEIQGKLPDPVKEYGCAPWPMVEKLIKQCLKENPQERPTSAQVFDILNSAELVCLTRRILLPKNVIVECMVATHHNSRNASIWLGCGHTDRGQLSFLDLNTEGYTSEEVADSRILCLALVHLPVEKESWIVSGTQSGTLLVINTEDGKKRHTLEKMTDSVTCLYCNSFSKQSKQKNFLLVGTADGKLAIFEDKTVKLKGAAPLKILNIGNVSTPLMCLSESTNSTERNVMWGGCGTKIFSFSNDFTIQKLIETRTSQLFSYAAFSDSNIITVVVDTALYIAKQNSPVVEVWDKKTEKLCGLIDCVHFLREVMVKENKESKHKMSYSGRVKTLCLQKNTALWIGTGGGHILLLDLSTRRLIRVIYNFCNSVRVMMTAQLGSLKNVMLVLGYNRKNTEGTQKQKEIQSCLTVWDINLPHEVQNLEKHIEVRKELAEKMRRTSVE
row,SMILES,IC50 [nM]
1,"COc1cc(C(=O)N2CCC(N3CCOCC3)CC2)c(F)cc1Nc1nc(O[C@H]2CCOC2)c2c(C#N)c[nH]c2n1 [Example 93, (S)-2-((5-fluoro-2-methoxy-4-(4-morpholinopiperidine-1-carbonyl)phenyl)amino)-4-((tetrahydrofuran-3-yl)oxy)-7H-pyrrolo[2,3-d]pyrimidine-5-carbonitrile]",< 10
2,"CNc1nc(Nc2ccc(C(=O)NC3CCN(C4COC4)CC3)cc2OC)nc2[nH]cc(C#N)c12 [Example 61, 4-((5-cyano-4-(methylamino)-7H-pyrrolo[2,3-d]pyrimidine-2-yl)amino)-3-methoxy-N-(1-(oxetane-3-yl)piperidine-4-yl)benzylamide]",10 to 100
3,"CCCNc1nc(Nc2cc(F)c(C(=O)N3CCC(N4CCOCC4)CC3)cc2OC)nc2[nH]cc(C#N)c12 [Example 15, 2-((5-fluoro-2-methoxy-4-(4-morpholinopiperidine-1-carbonyl)phenyl)amino)-4-(propylamino)-7H-pyrrolo[2,3-d]pyrimidine-5-carbonitrile]",< 10

# Further lines, results first:
row,IC50 [nM],SMILES
1,10 to 100,F[C@H]1CN(C2COC2)CC[C@@H]1n1ncc(Nc2nc(OC3CCOC3)c3c(C(F)(F)F)c[nH]c3n2)c1Cl (some centres unmarked) [Example 127]
2,10 to 100,"COc1cc(C(=O)N2CCOCC2)ccc1Nc1nc(OC2CCOC2)c2c(C(F)(F)F)c[nH]c2n1 (centres unmarked) [Example 124, (3-methoxy-4-((4-((tetrahydrofuran-3-yl)oxy)-5-(trifluoromethyl)-7H-pyrrolo[2,3-d]pyrimidine-2-yl)amino)phenyl)(morpholino)methanone]"
